Source: patent US8580579B2, “Hydrophilic and lipophilic rhodamines for labelling and imaging” (Max-Planck-Gesellschaft zur Foerderung der Wissenschaften …, priority 2009, dated 2013)
Entries after “also recorded” stand apart in the source; their conditions may differ. Like-named read-outs stand apart in the source and are kept apart here.

Columns and labels:
[1] = cited from earlier work
[2] = Spectral properties of commercially available dyes (Table 1); format: physicochemical; details: commercial dyes
[3] = Photostability order of commercial dyes; format: physicochemical; details: derived from the references to Table 1
Description: Cytochem. 2003, 51, 1699-1712], and only in 2007 its structure has been reported [B. Agnew, K. R. Gee, T. G. Nyberg (Invitrogen), US Pat. 2007/0249014]. Along with rhodamines, the following substance classes were considered as leads for developing of the new fluorescent dyes: BODIPY® derivatives (represented by BODYPY® 630/650 in FIG. 4), carbopyronines (Atto 635 and 647), cyanine dyes (Cy® 5 and Alexa 647), structurally related hybrids of cyanine dyes and benzopyranes (DY-630/635/650) and oxazines (Evoblue 30). BODIPY® derivatives have a substantial drawback: sometimes, fluorescence intensity of their bioconjugates is not directly proportional to a number of labelled sites [R. P. Haugland, A Guide to Fluorescent Probes and Labelling Technologies, Invitrogen Corp., Carlsbad, 2005, p. 53]. Moreover, it is difficult to chemically modify a BODIPY residue in such a way that it becomes water-soluble and more photostable. Carbopyronines have been extensively studied by Drexhage et al. [e.g. A. Zilles, J. Arden-Jacob, K.-H. Drexhage, N. U. Kemnitzer, M. Hammers-Schneider (Atto-tec GmbH), WO 2005/003086 (13 Jan. 2005)]. The carbopyronine dye Atto 647N has been widely used for labelling in many “nanoscopic” studies. Quite recently first STED images of the living cells were recorded at a rate of 28 frames per seconds using this dye [V. Westphal, S. O. Rizzoli, M. A. Lauterbach, D. Kamin, R. Jahn, S. W. Hell, Science 2008, 320, 246-249]. In the course of this study, the movements of synaptic vesicles inside the axons of cultured neurons were recorded with a resolution of ca. 60 nm. […] However, it is not easy to further improve the properties of the carbopyronine dye Atto 647N and make it more hydrophilic. […] Lower photostability and moderate Φfl-values of cyanine dyes make them inappropriate as lead structures. Short lifetimes of the excited states and presumably low Φfl-values of oxazines (e.g. Evoblue 30), as well as their moderate photostability, make the optimization of their properties not very promising.

[4] = cited from earlier work; remark: listed apart in the source
[5] = Solubility and polarity of the dyes
[6] = Fluorescence quantum yield, Atto 633 as reference; format: physicochemical; details: Atto 633 as reference (Φfl = 64% in aqueous buffer)
Description: Moreover, intersystem crossing rates (kISC) and rates of the T1→S0 transitions were also found to be the same for both deuterated and undeuterated substances (see ref. to Table 2).

[7] = 8 M urea solution; cited from earlier work
[8] = UV-visible absorption and fluorescence spectra of the dyes of the invention; format: physicochemical
Method: UV-visible absorption spectra were recorded on a Varian Cary 4000 UV-Vis spectrophotometer, and fluorescence spectra on a Varian Cary Eclipse fluorescence spectrophotometer. Reactions were carried out upon magnetic stirring in Schlenk flasks equipped with septa or reflux condensers with bubble-counters under argon using a standard manifold with vacuum and argon lines. All NMR spectra are referenced to tetramethylsilane as an internal standard (δ=0 ppm) using the signals of the residual protons of CHCl3 (7.26 ppm) in CDCl3, CHD2OD (3.31 ppm) in CD3OD, HOD (4.75 ppm) in D2O, [D5]acetone (2.04 ppm) in [D6]acetone or [D5]DMSO (2.50 ppm) in [D6]DMSO. Multiplicities of signals are described as follows: s=singlet, br. s=broad singlet, d=doublet, t=triplet, q=quartet, quint=quintet, m=multiplet, mc=centrosymmetrical multiplet. Coupling constants (J) are given in Hz. Multiplicities in the ^13C NMR spectra were determined by APT (Attached Proton Test) measurements. Low resolution mass spectra (electro spray ionization, ESI) were obtained with LCQ and ESI-TOF mass-spectrometers (MICROTOF (focus), Fa. Bruker). The MICROTOF spectrometer equipped with ESI ion source Apollo and direct injector with LC autosampler Agilent RR 1200 was used for obtaining high resolution mass spectra (ESI-HRMS). ESI-HRMS were obtained also on APEX IV spectrometer (Bruker). HPLC system (Knauer): Smartline pump 1000 (2×), UV detector 2500, column thermostat 4000 (25° C.), mixing chamber, injection valve with 20 and 100 μL loop for the analytical and preparative columns, respectively; 6-port-3-channel switching valve; analytical column: Eurospher-100 C18, 5 μm, 250×4 mm, 1.1 mL/min; preparative column: Eurospher-100-5 C18, 5 μm, 250×8 mm, 3.7 mL/min; solvent A: water+0.1% v/v trifluoroacetic acid (TFA); solvent B: MeCN+0.1% v/v TFA; detection at 636 nm (if not stated otherwise). Normal phase analytical TLC was performed on MERCK ready-to-use plates with silica gel 60 (F254) and reversed phase TLC—on RP-18W/UV254 precoated TLC plates (Macherey-Nagel). Preparative TLC was performed on MERCK HPTLC silica gel 60 plates (10×10 cm, layer thickness 0.2 mm). Column chromatography: MERCK silica gel, grade 60, 0.04-0.063 mm or Polygoprep 60-50 C18 (Macherey-Nagel).

[9] = Excited state lifetime and FCS study under single molecule conditions; format: physicochemical
[10] = Chemical and storage stability of dyes and reactive derivatives; format: physicochemical
[11] = physchem; details: water

SMILES | Solubility (solvents) [1] | Stokes shift [2] [nm] | order of the photoresistance [3] | Φfl ([4]; no solvent given in the cell) [%] | τfl ([4]; solvent not given) [ns] | τfl ([4]; H2O) | ε · 10^−5 ([4]; solvent H2O) [M^−1 cm^−1] | λmax (abs.) ([4]; solvent H2O) [nm] | λmax (fl.) ([4]; solvent H2O) [nm] | polarity [5] | solubility in water or aqueous buffers [5] | Φfl in water [6] [%] | other results
CC[N+]1=c2cc3c(cc2C(C)CC1(C)C)=C(c1ccccc1C(=O)N(C)CCCC(=O)O)c1cc2c4c(c1C3(C)C)CCCN4CCC2.[O-][Cl+3]([O-])([O-])[O-] (mixture of isomers) [Atto 647N] | DMF, DMSO | 25 | Atto 633>Atto 647N>Alexa® 647>Alexa® 633>Cy® 5 | 65 | 3.4 |  |  |  |  |  |  |  | ε · 10^−5 ([4]; solvent PBS): 1.5 M^−1 cm^−1; λmax (abs.) ([4]; solvent PBS): 644 nm; λmax (fl.) ([4]; solvent PBS): 669 nm
CCN(CC)CC.CCN(CC)CC.CN1c2cc3c(cc2-c2sc(S(=O)(=O)O)cc2C1(C)C)C(c1c(F)c(SCC(=O)O)cc(F)c1S(=O)(=O)[O-])=c1cc2c(cc1O3)=[N+](C)C(C)(C)c1cc(S(=O)(=O)O)sc1-2 [Alexa ® 633] | DMSO, H2O^3 | 15 | Atto 633>Atto 647N>Alexa® 647>Alexa® 633>Cy® 5 |  | 3.2 |  |  |  |  |  |  |  | ε · 10^−5 ([4]; solvent MeOH): 1.0 M^−1 cm^−1; λmax (abs.) ([4]; solvent MeOH): 632 nm; λmax (fl.) ([4]; solvent MeOH): 647 nm
CC[N+]1=c2cc3c(cc2CCC1)=C(c1ccccc1C(=O)N(C)CCCC(=O)O)c1ccc(N(C)C)cc1C3(C)C [Atto 633] | DMF, DMSO,; also recorded: (H2O) MeCN^2 |  | Atto 633>Atto 647N>Alexa® 647>Alexa® 633>Cy® 5 | 64 |  | 3.2 (H2O) ns | 1.3 | 629 | 657 |  |  |  | 
CC1=CC(C)(C)N2CCCc3c4c(cc1c32)C(c1c(F)c(F)c(F)c(F)c1C(=O)[O-])=c1cc2c3c(c1O4)CCC[N+]=3C(C)(C)C=C2C [Compound 4] |  |  |  |  |  |  |  |  |  | non-polar | low solubility in water or aqueous buffers; also recorded: insoluble in water | 63 | Solubility (solvents) [5]: CHCl3, THF; solubility in organic solvents [5]: soluble in most organic solvents; absorption maximum [7]: 630 nm; emission maximum [7]: 655 nm; λmax (abs.) ([8]; solvent MeOH): 616 nm; λmax (fl.) ([8]; solvent MeOH): 641 nm
[2H]C1=C(C([2H])([2H])S(=O)(=O)O)c2cc3c(c4c2N(CCC4)C1(C([2H])([2H])[2H])C([2H])([2H])[2H])Oc1c2c4c(cc1=C3c1c(F)c(F)c(F)c(F)c1C(=O)N(C)CCC(=O)O)C(C([2H])([2H])S(=O)(=O)[O-])=C([2H])C(C([2H])([2H])[2H])(C([2H])([2H])[2H])[N+]=4CCC2 [Compound 6D] |  |  |  |  |  |  |  |  |  | polar; also recorded: hydrophilic | soluble in water or aqueous buffers | 78 | τfl (excited state lifetime) [9]: 3.67^21 ns; Stokes shift ([8]; dyes of the invention): 23 nm; ε · 10^−5 ([8]; solvent H2O): 0.92 M^−1 cm^−1; λmax (abs.) ([8]; solvent H2O): 637 nm; λmax (fl.) ([8]; solvent H2O): 660 nm; stability in methanol or methanol-containing solutions [10]: rapid esterification of the β-alanine fragment with methanol; solubility [11]: > 100 mM
CC[N+]1=C(C=CC=CC=C2N(CCCCCC(=O)O)c3ccc(S(=O)(=O)O)cc3C2(C)C)C(C)(C)c2cc(S(=O)(=O)[O-])ccc21 [Cy ® 5] |  |  | Atto 633>Atto 647N>Alexa® 647>Alexa® 633>Cy® 5 |  |  | 0.9 (H2O)^1 ns | 2.5 | 647 | 663 |  |  |  | Φfl ([4]; PBS): 27%; τfl ([4]; PBS): 1 (PBS)^11 ns
